For series [1] the following is noted: cited from earlier work.
The test system of series [2] is rabbit plasma proteins and lipoproteins. As to the kind of experiment: In vivo binding to plasma proteins and lipoproteins, KBr density-gradient ultracentrifugation. The conditions noted are these: for binding to plasma elements (in words): rabbit, in vivo. On the procedure:
(§1) Plasma Analysis. Rabbits were injected via the ear vein with 1 μmol Lu(III)T2BET/kg and blood was collected at 15 min, 30 min, 3 hr, and 5 hr post administration. EDTA was used as the anticoagulant. Plasma samples (25 μl) were mixed with 10 mM Triton X100 (3 ml) and analyzed by fluorescence. Fluorescence spectra were acquired with a SLM 48000S instrument, excitation was between 450-480 nm and emission monitored from 700-800 nm. In vivo binding of Lu(III)T2BET to rabbit plasma proteins and lipoproteins was assessed using KBr density-gradient ultracentrifugation to fractionate the protein/lipoprotein mixture, followed by fluorescence spectroscopy to determine the relative distribution of Lu(III)T2BET among the low-density lipoproteins (LDL), high-density lipoproteins (HDL), and heavy proteins.

The test system of the next series is normal NZW rabbits. As to the kind of experiment: Fluorescence angiography in normal NZW rabbits with fundoscopy and H&E histology (safety). The series is classed as in vivo, rabbit. The conditions noted are these: i.v. 1-10 μmol/kg, fluorescein and ICG angiography and H&E histology. On the procedure: Fluorescence angiography comparing LuT2BET, fluorescein, and ICG was performed on normal NZW rabbits. Normal rabbits (n=4) received an intravenous injection of LuT2BET from 1-10 μmol/kg after intramuscular sedation and pupillary dilatation. Extensive fundoscopy was performed immediately and up to 2 hours post texaphyrin, fluorescein, or ICG administration. […] In further studies, vascular lesions including neovascularization was induced in albino rabbits (NZW) using photocoagulation. PDT using LuT2BET was carried out on the induced lesions. […] Therefore, selective accumulation of Lu(III)T2BET in areas of neovascularization should facilitate diagnosis and photodynamic therapy of age-related macular degeneration and other disorders related to abnormal vasculature.
Dyes. Lutetium texaphyrin, Lu(III)T2BET, was dissolved in 5% mannitol at a concentration of 2 mM. Indocyanine-green (ICG, Cardio-Gree^n®, Becton Dickinson and Company, Cockeysville, Md.) and fluorescein (Alcon Laboratories, Fort Worth, Tex.) fluorescent angiograms were performed at concentrations of 0.31 mg/kg and 7.5 mg/kg, respectively. […]
Photography. Fundus photography and fluorescence angiograms were performed with the TOPCON™50VT camera coupled to the Ophthalmic Imaging System (Ophthalmic Imaging System Inc., Sacramento, Calif.). […] ICG was excited at 790-805 nm and fluorescence detected at 835 nm. […]

For series [3], the system named is induced vascular lesions of the eye. As to the kind of experiment: Photodynamic therapy of induced vascular lesions of the eye. The series is classed as in vivo. The conditions noted are these: rabbit. On the procedure:
Induction of Neovascularization. Photocoagulation bums were introduced in the right macular retina of seven rabbits with an argon dye laser (Coherent Inc., Palo Alto, Calif.). On average, five lesions were induced with 577 nm light using a spot size of 50 μm using enough power (typically 450 mW) to cause bleeding into the retina. The eyes were photographed immediately after photocoagulation. Fluorescein and ICG angiograms were performed 11-15 days after photocoagulation. […] Four control animals, having no induced lesions, were given fluorescence angiograms with the respective dyes.
PDT Protocol. Animals received Lu(III)T2BET, 30 minutes post injection laser light at 488 nm, spot size of 1000 μm, was directed to each lesion via a slitlamp system. Fluorescein angiography was performed throughout the procedure, from prior to until after PDT.
Thirty minutes after injection with LuT2BET, laser light at 488 nm, spot size of 1000 μm, was directed to the lesion via a slitlamp lens system.

Series [4] in a line: Plasma analysis: plasma concentration by fluorescence. Format: in vivo. The conditions noted are these: rabbit, i.v. 1 μmol/kg. How it is done: as §1
Series [5] can be described thus: Absorption spectrum and fluorescence profile. The series is classed as physicochemical.
For series [6] the following is noted: cited from earlier work. This is another data set of the same source.

We go through six compounds from US20020025298A1, “Use of texaphyrin in ocular diagnosis and therapy” (Pharmacyclics, Inc., priority 1996, published 2002).

Where “and” joins values, the source holds several entries; their conditions need not be identical. Equal entries are not always repeated. Where two headings read alike, the source gives them in different places.

Turning to `CCOC(=O)C1=Cc2c3nc(cc4nc(cc5[n-]c(cc6[n-]c2c(C)c6CC)c(C)c5CC)C(C)=C4CC)[C@@H](C)[C@]13CC.[Cl-].[Cl-].[Sn]` (racemic) [SnET2, Tin etiopurpurin], in series [1], the “solubility in aqueous solutions” value is “insoluble”.

In the case of `CC1(C)C(/C=C/C=C/C=C/C=C2\N(CCCCS(=O)(=O)O)c3ccc4ccccc4c3C2(C)C)=[N+](CCCCS(=O)(=O)[O-])c2ccc3ccccc3c21` [ICG, indocyanine green, reference compound], the “binding to plasma elements (in words)” value in series [2] is “binding mainly to albumin”.

Turning to `CC(=O)[O-].CC(=O)[O-].CCc1c(CC)c2cc3nc(cnc4cc(OCCOCCOCCOC)c(OCCOCCOCCOC)cc4ncc4nc(cc1[n-]2)C(CCCO)=C4C)C(C)=C3CCCO.O.[Lu+3]` [LuT2BET], the “normal tissue damage after fluorescence angiography” value in the series on normal NZW rabbits is “no evidence of normal tissue damage”. In addition, in series [3], the “damage in control normal choroid or retinal tissue after PDT” value is “no damage was observed” and the “damage to surrounding vessels or tissues after PDT” value is “No damage”. Moreover, the “closure of induced lesions after PDT” value in series [3] (488 nm light 30 min after injection, spot size 1000 μm) is reported as “Closure of induced lesions was observed”. Moreover, the “fluorescein leakage outside the treated vessel after PDT” value in series [3] (fluorescein angiogram after PDT) is on record as “limited fluorescence leakage outside of the PDT-treated vessel”. In addition, in series [4] (15 min), the concentration in plasma turned out to be 2.68 µg/mL. In series [4] (30 min), this compound returned a concentration in plasma of 1.79 µg/mL. This compound also displayed a concentration in plasma in series [4] (3 hr) of 0.18 µg/mL. Besides, the concentration in plasma in series [4] (5 h) is 0.12 µg/mL. Besides, in series [2] (rabbit plasma), the “relative in vivo binding, HDL fraction” value is on record as 49%; the “relative in vivo binding, LDL portion” value was 10.5%; the “relative in vivo binding, heavy proteins” value stood at 40.5%. In addition, the “binding to plasma elements (in words)” value in series [2] was “predominantly bound to lipoproteins and to some extent albumin”. Also, in series [5], the absorption bands was 470 nm and 732 nm; the “fluorescence emission profile centre” value is given as 750 nm. Further, the “extinction coefficient ε” value in series [5] (at 732 nm) is recorded as 32,000 M^−1 cm^−1. For the same compound, the “fluorescence emission FWHM” value in series [5] (emission centered at 750 nm) came to 60 nm.

As to `O=C1OC2(c3ccc(O)cc3Oc3cc(O)ccc32)c2ccccc21` [fluorescein, reference compound], the “binding to plasma elements (in words)” value in series [2] is “not bound to plasma elements”.

For Benzoporphyrin derivative [BPD], the “duration of cutaneous photosensitivity” value in series [6] (in vivo) is on record as “a few days”. Further, the “solubility in aqueous solutions” value in series [1] is “insoluble”.

On to porfimer sodium, for which the “duration of cutaneous photosensitivity” value in series [6] (light of 630 nm) is on record as “up to 6 weeks”.
